≈ marks a conversion by molar mass, not a printed value. Like-named read-outs stand apart in the source and are kept apart here.
Tests used:
HepG2 cells = assay: HepG2 cytotoxicity, CellTiter 96 (MTS) assay; format: cell-based, human; conditions: for IC50: 24 h incubation, > means higher concentration not reproducible due to precipitation, read-out: HepG2 IC50
[1] = tested on: Mycobacterium smegmatis DSM 43465 (ATCC 607); assay: Microdilution broth, modified Microplate Alamar Blue Assay, whole cell growth inhibition; format: cell-based; conditions: in vitro, Middlebrook 7H9 broth, resazurin; for MIC: Mycolicibacterium smegmatis, read-out: MIC Mycobacterium smegmatis
[2] = tested on: Mycobacterium tuberculosis H37Ra ITM-M006710 (ATCC 9431); assay: as above; format: cell-based; conditions: for MIC: Mycobacterium tuberculosis, read-out: MIC Mtb H37Ra
[3] = tested on: Mycobacterium aurum DSM 43999 (ATCC 23366); assay: Microdilution broth, modified Microplate Alamar Blue Assay, whole cell growth inhibition; format: cell-based; conditions: in vitro, Middlebrook 7H9 broth, resazurin; for MIC: Mycolicibacterium aurum, read-out: MIC Mycobacterium aurum
[4] = tested on: Trichophyton interdigitale ATCC 9533, CCM 8377; assay: Antifungal microdilution broth method (EUCAST); format: cell-based; conditions: 72 h, standards, read-out: MIC against Trichophyton interdigitale
[5] = tested on: Candida tropicalis ATCC 750, CCM 8264; assay: Antifungal microdilution broth method (EUCAST); format: cell-based; conditions: 48 h, standards, read-out: MIC against C. tropicalis
[6] = tested on: Candida krusei ATCC 6258, CCM 8271; assay: Antifungal microdilution broth method (EUCAST); format: cell-based; conditions: Pichia kudriavzevii
[7] = tested on: Candida albicans ATCC 24433, CCM 8320; assay: Antifungal microdilution broth method (EUCAST); format: cell-based
[8] = tested on: Absidia corymbifera CCM 8077 (Lichtheimia corymbifera); assay: Antifungal microdilution broth method (EUCAST); format: cell-based; conditions: CCM8077, 48 h, standards, read-out: MIC against Lichtheimia corymbifera
[9] = tested on: Candida parapsilosis ATCC 22019, CCM 8260; assay: Antifungal microdilution broth method (EUCAST); format: cell-based; conditions: Lodderomyces parapsilosis
[10] = tested on: Aspergillus flavus CCM 8363; assay: Antifungal microdilution broth method (EUCAST); format: cell-based; conditions: CCM8363, 48 h, standards, read-out: MIC against Aspergillus flavus
[11] = tested on: Aspergillus fumigatus ATCC 204305; assay: Antifungal microdilution broth method (EUCAST); format: cell-based; conditions: ATCC204305, 48 h, standards, read-out: MIC against Aspergillus fumigatus
[12] = in vitro, Middlebrook 7H9 broth, resazurin

CCCCNc1cnc(C(=O)Nc2ccc(Cl)cc2O)cn1 [Compound 6b, 5-(Butylamino)pyrazine-N-(4-chloro-2-hydroxyphenyl)-2-carboxamide]
IC50 (HepG2 cells; Homo sapiens, HepG2): > 50 µM | MIC [1]: 3.91 µg/mL (≈ 12.2 µM) | MIC [2, 12]: ≥ 500 µg/mL | melting point: 221.8 to 225.4 °C | MIC [3]: ≥ 500 µg/mL

CO[C@H]1/C=C/O[C@@]2(C)Oc3c(C)c(O)c4c(O)c(c(/C=N/N5CCN(C)CC5)c(O)c4c3C2=O)NC(=O)/C(C)=C\C=C\[C@H](C)[C@H](O)[C@@H](C)[C@@H](O)[C@@H](C)[C@H](OC(C)=O)[C@@H]1C [RIF, rifampicin, reference compound]
MIC [1]: 6.25 to 12.5 µg/mL (≈ 7.59 to 15.2 µM) | MIC [2, 12]: 0.0039 to 0.0078 µg/mL (≈ 0.00474 to 0.00948 µM) | MIC [3]: 0.39 to 0.78 µg/mL (≈ 0.474 to 0.948 µM)

O=C(Nc1ccc(O)cc1)c1cnc(Cl)cn1 [Compound 3, 5-Chloro-N-(4-hydroxyphenyl)pyrazine-2-carboxamide]
IC50 (HepG2 cells; Homo sapiens, HepG2): 350 µM | SI, selectivity index (HepG2 cells; IC50 (HepG2)/MIC against Mtb H37Ra (in µM)): 1.40 | MIC [1]: ≥ 250 µg/mL | MIC [2, 12]: 62.5 µg/mL (≈ 250 µM) | MIC [3]: ≥ 250 µg/mL

5-Chloro-N-(5-chloro-2-hydroxyphenyl)pyrazine-2-carboxamide [Compound 6]
IC50 (HepG2 cells): > 250 µM | MIC Mycobacterium smegmatis [1]: ≥500 µg/mL | MIC Mtb H37Ra [2, 12]: ≥500 µg/mL | MIC Mycobacterium aurum [3]: ≥500 µg/mL

Cc1ccc(NC(=O)c2cnc(Cl)cn2)cc1 [Compound 4, 5-Chloro-N-(p-tolyl)pyrazine-2-carboxamide]
IC50 (HepG2 cells; Homo sapiens, HepG2): > 50 µM | MIC [1]: ≥ 500 µg/mL | MIC [2, 12]: ≥ 500 µg/mL | MIC [3]: ≥ 500 µg/mL

CCc1ccc(NC(=O)c2cnc(Cl)cn2)cc1 [Compound 5, 5-Chloro-N-(4-ethylphenyl)pyrazine-2-carboxamide]
IC50 (HepG2 cells; Homo sapiens, HepG2): > 50 µM | MIC [1]: ≥ 500 µg/mL | MIC [2]: 250 µg/mL (≈ 955 µM) | MIC [3]: ≥ 500 µg/mL

C[C@@H]1[C@H](O)[C@@H](C)/C=C/C=C/C=C/C=C/C=C/C=C/C=C/[C@H](O[C@@H]2O[C@H](C)[C@@H](O)[C@H](N)[C@@H]2O)C[C@@H]2O[C@](O)(C[C@@H](O)C[C@@H](O)[C@H](O)CC[C@@H](O)C[C@@H](O)CC(=O)O[C@H]1C)C[C@H](O)[C@H]2C(=O)O [Amphotericin B, amphotericin B, reference compound]
MIC [4]: 2 µg/mL (≈ 2.16 µM) | MIC [5]: 1 µg/mL (≈ 1.08 µM) | MIC ([6]; 48 h, standards, read-out: MIC against C. krusei): 1 µg/mL | MIC ([6]; Table 3, standard, read-out: MIC CK (Candida krusei)): 1 µg/mL | MIC ([6]; Table 3, read-out: MIC CK (Candida krusei)): 1.08 µM | MIC ([7]; 48 h, standards, read-out: MIC against Candida albicans): 0.5 µg/mL | MIC ([7]; Table 3, read-out: MIC CA (Candida albicans)): 0.54 µM | MIC ([7]; Table 3, standard, read-out: MIC CA (Candida albicans)): 0.5 µg/mL | MIC [8]: 0.5 µg/mL (≈ 0.541 µM) | MIC ([9]; 48 h, standards, read-out: MIC against C. parapsilosis): 0.5 µg/mL | MIC ([9]; Table 3, standard, read-out: MIC CP (Candida parapsilosis)): 0.5 µg/mL | MIC ([9]; Table 3, read-out: MIC CP (Candida parapsilosis)): 0.54 µM | MIC [10]: 8 µg/mL (≈ 8.66 µM) | MIC [11]: 1 µg/mL (≈ 1.08 µM)

Reference: publication PMC7180572, “5-Alkylamino-N-phenylpyrazine-2-carboxamides: Design, Preparation, and Antimycobacterial Evaluation” (Molecules, 2020)
